Data: patent US20240024335A1, “TREATMENT AND PREVENTION OF ANAEMIA OF INFLAMMATION” (Sanquin IP B.V., priority 2020, published 2024)
“Also recorded” adds a separate entry of the source.

Columns and labels:
donor RBCs = assay: Flow assay: adhesion of donor RBC to laminin-α5 in response to IL-8 and sera from sepsis patients
[1] = in vivo; cited from earlier work
sickle cell patients = details: Ataga et al.; cited from earlier work

In the case of NC(=O)C(c1ccccc1)(c1ccc(F)cc1)c1ccc(F)cc1 [Senicapoc, 4-fluoro-α-(4-fluorophenyl)-α-phenyl-benzeneacetamide], the “AI-mediated degradation of RBC in vitro” value (donor RBCs; in vitro, see Example 1) is given as “counteracts AI-mediated degradation of RBC”, the Tolerability [1] is given as “well-tolerated” and the “Reduction of vaso-occlusive events” value (sickle cell patients) is given as “did not result in reduction of vaso-occlusive events”.
In the case of Clc1ccccc1C(c1ccccc1)(c1ccccc1)n1cccn1 [TRAM34, 1-[(2-chlorophenyl)diphenylmethyl]-1H-pyrazole], the “Adhesion of donor RBCs to laminin-α5 in response to IL-8 incubation” value (donor RBCs; RBCs pre-incubated with inhibitor 30 min, then IL-8 30 min at 37° C., FIG. 8B, 8C) is reported as “inhibited; also recorded: counteracted” and the “Adhesion of donor RBCs to laminin-α5 in response to sera of sepsis patients” value (donor RBCs; RBCs pre-incubated with inhibitor 30 min, then sera of sepsis patients 30 min at 37° C., FIG. 8D) is reported as “inhibited”.
